# Test results: ChEMBL document CHEMBL2375343, “(4-Phenoxyphenyl)tetrazolecarboxamides and related compounds as dual inhibitors of fatty acid amide hydrolase (FAAH) and monoacylglycerol lipase (MAGL)” (Eur J Med Chem, 2013)
# Calls of active or inactive are those of the source. The rule behind the calls is not given here.
# Tests used:
# [1] = biological target: T1, Fatty-acid amide hydrolase 1 (Rattus norvegicus, UniProt P97612); assay: Inhibition of FAAH in Sprague-Dawley rat brain microsomes assessed as N-(2-hydroxyethyl)-4-pyren-1-ylbutanamide conversion to 4-pyren-1-ylbutanoic acid preincubated for 10 mins measured after 45 mins by HPLC analysis
# T1 sequence (P97612 whole entry): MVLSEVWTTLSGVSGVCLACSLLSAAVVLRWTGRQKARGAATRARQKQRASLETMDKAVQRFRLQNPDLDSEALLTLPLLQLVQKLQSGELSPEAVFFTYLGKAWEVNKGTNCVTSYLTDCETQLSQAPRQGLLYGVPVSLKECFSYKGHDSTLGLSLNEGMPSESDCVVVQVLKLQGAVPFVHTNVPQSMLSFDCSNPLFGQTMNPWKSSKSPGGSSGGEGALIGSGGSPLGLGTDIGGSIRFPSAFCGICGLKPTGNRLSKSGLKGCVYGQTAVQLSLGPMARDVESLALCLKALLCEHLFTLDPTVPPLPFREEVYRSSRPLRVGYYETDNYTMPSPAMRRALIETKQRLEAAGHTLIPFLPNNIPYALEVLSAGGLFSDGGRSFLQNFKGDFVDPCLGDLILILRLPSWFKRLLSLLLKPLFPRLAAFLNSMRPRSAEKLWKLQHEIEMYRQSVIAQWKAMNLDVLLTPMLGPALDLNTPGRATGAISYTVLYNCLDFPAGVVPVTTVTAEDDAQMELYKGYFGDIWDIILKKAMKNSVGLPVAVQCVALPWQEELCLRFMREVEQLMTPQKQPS
# Sus scrofa = organism: Sus scrofa; assay: Inhibition of cytosolic phospholipase A2alpha in porcine platelets assessed as 1-stearoyl-2-arachidonoyl-sn-glycero-3-phosphocholine conversion to arachidonic acid at 10 uM by HPLC analysis
# Monoglyceride lipase [2] = biological target: T2, Monoglyceride lipase (Homo sapiens, UniProt Q99685); assay: Inhibition of human recombinant MAGL-mediated 1,3-dihydroxypropan-1-yl 4-pyren-1-ylbutanoate conversion to 4-pyren-1-ylbutanoic acid preincubated for 15 mins measured after 45 mins by HPLC analysis
# T2 sequence (Q99685 whole entry): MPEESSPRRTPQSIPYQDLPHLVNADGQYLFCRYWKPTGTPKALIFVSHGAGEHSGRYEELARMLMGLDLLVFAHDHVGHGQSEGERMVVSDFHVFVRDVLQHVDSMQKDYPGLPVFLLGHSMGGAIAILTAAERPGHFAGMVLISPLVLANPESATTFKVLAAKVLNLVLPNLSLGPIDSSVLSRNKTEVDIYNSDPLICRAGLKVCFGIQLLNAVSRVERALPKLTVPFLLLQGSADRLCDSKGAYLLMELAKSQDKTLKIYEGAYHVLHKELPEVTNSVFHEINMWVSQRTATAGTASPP
# [3] = biological target: T3, Monoglyceride lipase (Homo sapiens) (UniProt Q99685); assay: Inhibition of human recombinant MAGL-mediated 1,3-dihydroxypropan-1-yl 4-pyren-1-ylbutanoate conversion to 4-pyren-1-ylbutanoic acid at 10 uM preincubated for 15 mins measured after 45 mins by HPLC analysis relative to control
# T3 sequence (whole entry): T2 sequence (Q99685 whole entry)
# [4] = biological target: T4, Fatty-acid amide hydrolase 1 (Rattus norvegicus) (UniProt P97612); assay: Inhibition of FAAH in Sprague-Dawley rat brain microsomes assessed as N-(2-hydroxyethyl)-4-pyren-1-ylbutanamide conversion to 4-pyren-1-ylbutanoic acid at 10 uM preincubated for 10 mins measured after 45 mins by HPLC analysis relative to control
# T4 sequence (whole entry): T1 sequence (P97612 whole entry)
# Monoglyceride lipase [5] = biological target: T2, Monoglyceride lipase; assay: Inhibition of MAGL (unknown origin) using 4-nitrophenylacetate as substrate
# [6] = biological target: T5, Fatty-acid amide hydrolase 1 (Homo sapiens, UniProt O00519); assay: Inhibition of FAAH (unknown origin)
# T5 sequence (O00519 whole entry): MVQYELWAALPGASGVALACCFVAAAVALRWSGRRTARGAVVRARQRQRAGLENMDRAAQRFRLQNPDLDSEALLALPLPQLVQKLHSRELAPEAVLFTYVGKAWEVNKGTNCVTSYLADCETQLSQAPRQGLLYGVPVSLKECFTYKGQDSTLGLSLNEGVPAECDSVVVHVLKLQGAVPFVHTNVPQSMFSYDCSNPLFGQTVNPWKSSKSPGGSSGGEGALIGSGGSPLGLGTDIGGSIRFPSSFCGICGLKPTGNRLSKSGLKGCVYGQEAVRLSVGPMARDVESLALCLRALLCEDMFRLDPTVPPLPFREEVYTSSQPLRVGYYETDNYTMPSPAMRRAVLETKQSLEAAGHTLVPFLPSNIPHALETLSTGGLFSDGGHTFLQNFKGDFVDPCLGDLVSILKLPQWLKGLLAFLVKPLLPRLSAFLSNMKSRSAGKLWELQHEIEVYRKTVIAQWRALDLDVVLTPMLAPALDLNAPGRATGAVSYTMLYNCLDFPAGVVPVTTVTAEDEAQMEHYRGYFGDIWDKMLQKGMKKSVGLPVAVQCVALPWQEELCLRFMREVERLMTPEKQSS
# Monoglyceride lipase [7] = biological target: T2, Monoglyceride lipase; assay: Inhibition of MAGL (unknown origin)
# [8] = Selectivity ratio of IC50 for human recombinant MAGL to IC50 for FAAH in Sprague-Dawley rat brain microsomes; conditions: Microsome
# [9] = Metabolic stability in Wistar rat liver S9 fraction at 20 uM after 30 mins by HPLC analysis; type: ADME, subcellular; conditions: read-out: Stability
# Monoglyceride lipase [10] = biological target: T6, Monoglyceride lipase (Rattus norvegicus, UniProt Q8R431); assay: Inhibition of rat MAGL expressed in monkey COS7 cells; type: cell-based, COS-7
# T6 sequence (Q8R431 whole entry): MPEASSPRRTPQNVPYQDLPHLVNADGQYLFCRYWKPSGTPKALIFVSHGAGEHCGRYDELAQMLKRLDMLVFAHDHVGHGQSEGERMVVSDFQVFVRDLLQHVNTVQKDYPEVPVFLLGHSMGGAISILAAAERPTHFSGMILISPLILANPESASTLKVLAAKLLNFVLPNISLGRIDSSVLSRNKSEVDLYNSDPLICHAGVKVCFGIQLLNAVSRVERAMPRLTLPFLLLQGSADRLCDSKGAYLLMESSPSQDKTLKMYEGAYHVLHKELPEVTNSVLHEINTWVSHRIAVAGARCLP
# Monoglyceride lipase [11] = biological target: T2, Monoglyceride lipase; assay: Inhibition of human MAGL expressed in Escherichia coli using 6-methoxy-4-methylcoumarin ester as substrate after 3 hrs by mass spectroscopic analysis
# Monoglyceride lipase [12] = biological target: T6, Monoglyceride lipase; assay: Inhibition of MAGL in rat cerebellar membranes; type: cell membranes, Membrane
smiles,measurement,setting,value
Cc1ccc(C)n1Cc1ccc(-c2nnn(C(=O)N(C)C)n2)cc1,IC50,[1],140 nM
CN(C)C(=O)n1nnnc1-c1ccc(Oc2ccccc2)cc1,IC50,[1],7 nM
same,inhibition,Sus scrofa,inactive
CN(C)C(=O)n1nnc(-c2ccc(-n3cccc3)cc2)n1,IC50,[1],5 nM
CN(C)C(=O)n1nnc(Cc2ccc(-c3ccccc3)cc2)n1,IC50,Monoglyceride lipase [2],6 nM
same,IC50,[1],12 nM
same,inhibition,Sus scrofa,inactive
O=C(CCCCCc1ccccc1)c1nc2ncccc2o1,inhibition,[3],inactive
same,IC50,[1],4 nM
CN(C)C(=O)n1nnc(-c2ccc(Cn3ccc4ccccc43)cc2)n1,IC50,[1],88 nM
CN(C)C(=O)n1nnc(-c2ccc(Oc3ccc(Cl)c(Cl)c3)cc2)n1,IC50,[1],11 nM
COc1ccc(Oc2ccc(-c3nnn(C(=O)N(C)C)n3)cc2)cc1,IC50,[1],13 nM
O=C1N=C(O)S/C1=C\c1ccc(Oc2ccccc2)cc1,inhibition,[3],inactive
same,inhibition,[4],inactive
COc1nn(-c2ccc(NC(=O)OCc3ccccc3)c(C)c2)c(=O)o1,IC50,Monoglyceride lipase [2],480 nM
same,IC50,[1],1300 nM
same,IC50,Monoglyceride lipase [5],400 nM
same,IC50,[6],76 nM
same,IC50,Monoglyceride lipase [7],92 nM
CN(C)C(=O)n1nnc(-c2ccc(Oc3cccc(F)c3)cc2)n1,IC50,[1],10 nM
O=C(NC1CCCCC1)N1CC(c2ccc(Oc3ccccc3)cc2)OC1=O (configuration not stated),inhibition,[3],inactive
same,inhibition,[4],inactive
O=C1C=CC(=O)N1Cc1ccc(Oc2ccccc2)cc1,inhibition,[3],44%
same,IC50,Monoglyceride lipase [2],> 10000 nM
same,IC50,[1],4900 nM
CN(C)C(=O)n1nnc(-c2ccc(-n3ccc4ccccc43)cc2)n1,IC50,[1],12 nM
Cc1cc(C(=O)c2ccccc2)c(C)n1-c1ccc(-c2nnn(C(=O)N(C)C)n2)cc1,IC50,[1],16 nM
Cc1cc(C(=O)C(C)(C)C)c(C)n1-c1ccc(-c2nnn(C(=O)N(C)C)n2)cc1,IC50,[1],29 nM
CN(C)C(=O)n1nnnc1Cc1ccc(-c2ccccc2)cc1,Ratio IC50,[8],60
same,IC50,Monoglyceride lipase [2],290 nM
same,IC50,[1],5 nM
same,inhibition,Sus scrofa,inactive
CN(C)C(=O)n1nnc(-c2ccc(Cn3cccc3)cc2)n1,IC50,[1],11 nM
COc1cccc(Oc2ccc(-c3nnn(C(=O)N(C)C)n3)cc2)c1,IC50,[1],15 nM
CCCCCC(=O)c1cc(C)n(-c2ccc(-c3nnn(C(=O)N(C)C)n3)cc2)c1C,IC50,[1],11 nM
O=c1[nH]c(-c2ccc(Oc3ccccc3)cc2)no1,inhibition,[3],inactive
same,inhibition,[4],inactive
CC(C)N(C(=O)n1nnc(-c2ccc(Oc3ccccc3)cc2)n1)C(C)C,inhibition,[3],inactive
same,IC50,[1],> 10000 nM
same,"remaining at 0.5 h, 20 µM",[9],27%
same,inhibition,[4],17%
CN(C)C(=O)n1nnnc1Cc1ccc(Oc2ccccc2)cc1,IC50,[1],6 nM
same,inhibition,Sus scrofa,inactive
CN(C)C(=O)n1nnc(-c2ccc(Oc3ccc(Cl)cc3)cc2)n1,IC50,[1],16 nM
CN(C)C(=O)n1nnc(-c2ccc(Oc3ccccc3)cc2)n1,IC50,[1],12 nM
same,"remaining at 0.5 h, 20 µM",[9],0%
same,inhibition,Sus scrofa,inactive
CN(C)C(=O)n1nnc(-c2ccc(Oc3ccc(F)cc3)cc2)n1,IC50,[1],14 nM
O=C1C=CC(=O)N1c1ccc(Oc2ccccc2)cc1,IC50,[1],5300 nM
Cc1cccc(Oc2ccc(-c3nnn(C(=O)N(C)C)n3)cc2)c1,IC50,[1],13 nM
CN(C)C(=O)n1nnc(Cc2ccc(Oc3ccccc3)cc2)n1,IC50,[1],9 nM
same,inhibition,Sus scrofa,inactive
O=C1NCC(c2ccc(Oc3ccccc3)cc2)O1 (configuration not stated),inhibition,[3],inactive
same,inhibition,[4],inactive
Cc1ccc(Oc2ccc(-c3nnn(C(=O)N(C)C)n3)cc2)cc1,IC50,[1],24 nM
O=C(Oc1ccc([N+](=O)[O-])cc1)N1CCC(C(O)(c2ccc3c(c2)OCO3)c2ccc3c(c2)OCO3)CC1,IC50,Monoglyceride lipase [10],25 nM
same,inhibition,[4],inactive
Cc1ccc(C)n1-c1ccc(-c2nnn(C(=O)N(C)C)n2)cc1,IC50,[1],9 nM
CN(C)C(=O)n1nnc(-c2ccc(-n3cccn3)cc2)n1,IC50,[1],8 nM
COc1nn(-c2ccc(Oc3ccccc3)cc2)c(=O)o1,IC50,Monoglyceride lipase [2],310 nM
same,IC50,[1],720 nM
same,IC50,[6],65 nM
same,IC50,Monoglyceride lipase [7],78 nM
CC(=O)c1cc(C)n(-c2ccc(-c3nnn(C(=O)N(C)C)n3)cc2)c1C,IC50,[1],9 nM
CCN(CC)C(=O)n1nnc(-c2ccc(Oc3ccccc3)cc2)n1,IC50,[1],37 nM
same,"remaining at 0.5 h, 20 µM",[9],0%
CN(C)C(=O)n1nnc(-c2ccc(Oc3cccc(Cl)c3)cc2)n1,IC50,[1],9 nM
Cc1cc(C(=O)c2ccc(-c3ccccc3)cc2)c(C)n1-c1ccc(-c2nnn(C(=O)N(C)C)n2)cc1,IC50,[1],40 nM
CCCCC/C=C\C/C=C\C/C=C\C/C=C\CCCCN1C(=O)C=CC1=O,inhibition,[3],inactive
same,IC50,Monoglyceride lipase [11],2800 nM
same,inhibition,[4],38%
same,IC50,Monoglyceride lipase [12],140 nM
